Data published in PubChem BioAssay (NCI).
Where “and” joins values, the source holds several entries; their conditions need not be identical. Identical values can stand only once.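 Tested at 5 concentrations; 48 h exposure; 96-well plates; endpoints linearly interpolated, else capped at highest concentration. Abbreviation: GI50, concentration required for 50% inhibition of growth. TGI marks complete inhibition of growth.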

How the values were obtained:
Test in all cases: inhibition of tumour cell growth, NCI panel, 48 h
U251 CNS = tested on: U251 CNS
A549 NSCLC = tested on: A549 NSCLC
COLO 205 colon = tested on: COLO 205 colon
RPMI-8226 leukemia = tested on: RPMI-8226 leukemia
786-0 renal = tested on: 786-0 renal
SF-539 CNS = tested on: SF-539 CNS
M14 melanoma = tested on: M14 melanoma
HOP-92 NSCLC = tested on: HOP-92 NSCLC
ACHN renal = tested on: ACHN renal
SF-268 CNS = tested on: SF-268 CNS

Row | Structure (SMILES) | GI50 (U251 CNS) [µM] | TGI (U251 CNS) | GI50 (A549 NSCLC) [µM] | TGI (A549 NSCLC) [µM] | GI50 (COLO 205 colon) [µM] | TGI (COLO 205 colon) | GI50 (RPMI-8226 leukemia) [µM] | TGI (RPMI-8226 leukemia) [µM] | GI50 (786-0 renal) [µM] | TGI (786-0 renal) | GI50 (SF-539 CNS) [µM] | TGI (SF-539 CNS) | GI50 (M14 melanoma) [µM] | TGI (M14 melanoma) | GI50 (HOP-92 NSCLC) [µM] | TGI (HOP-92 NSCLC) | GI50 (ACHN renal) [µM] | TGI (ACHN renal) | GI50 (SF-268 CNS) [µM] | TGI (SF-268 CNS) [µM]
1 | O=C1c2cccc3cccc(c23)C(=O)N1CC#Cc1ccc2c3c(cccc13)C(=O)N(CCN1CCNCC1)C2=O | 1.87 | 3.78 µM | 3.19 | 12 | 3.3 | 12.4 µM | 2.12 | 4.49 | 1.86 | 3.53 µM | 1.82 | 3.39 µM | 2.53 | 6.19 µM | 4 | 20.5 µM | 2.75 | 7.96 µM | 13.5 | 35.5
2 | O=[N+]([O-])c1ccc(N/N=C/c2ccccc2O)nc1 | 1.69 | > 100 µM | 2.07 | > 100 | 0.544 | > 100 µM | 0.86 | > 100 | 3.03 | > 100 µM | 2.68 | > 100 µM | 1.66 | > 100 µM | 3.74 | > 100 µM | 0.594 | > 100 µM | 1.26 | > 100
3 | CN=c1ss/c(=N\C(=S)N(C)C)n1C1CCCCC1 | – | > 31.6 µM | – | > 31.6 | – | > 31.6 µM | – | > 100 | – | > 10 µM | – | > 100 µM | – | > 10 µM | – | > 10 µM | – | > 31.6 µM | – | > 31.6
4 | COc1cc(-c2nccc3[nH]c(-c4cccc5[nH]ccc45)nc23)cc(OC)c1OC | < 0.01 | 13 µM | < 0.01 | 1.78 | < 0.01 | < 0.01 µM | < 0.01 | 2.91 | < 0.01 | 2.92 µM | < 0.01 | 0.0139 µM | < 0.01 | 10.1 µM | < 0.01 | 19 µM | < 0.01 | 11.6 µM | < 0.01 | 16
5 | Cc1cc(Br)c2nsnc2c1[N+](=O)[O-] | 2.73 | 8.12 µM | 4.13 | 17.3 | 3.01 | 7.97 µM | 0.666 | 9.55 | 3.96 | 13.7 µM | 3.1 | 11.2 µM | 1.77 | 3.32 µM | 7.24 | 22.1 µM | 4.39 | 15.5 µM | 2 | 5.16
6 | CC(=O)Nc1c(I)c(C(=O)O)c(I)c(N(C)C(C)=O)c1I | > 100 | > 100 µM | > 100 | > 100 | > 100 | > 100 µM | > 100 | > 100 | > 100 | > 100 µM | > 100 | > 100 µM | > 100 | > 100 µM | > 100 | > 100 µM | > 100 | > 100 µM | > 100 | > 100
7 | C[C@@H](Oc1cc(-c2cnn(C3CC4(CNC4)C3)c2)cnc1N)c1c(Cl)ccc(F)c1Cl | 5.01 | 19.1 µM | 3.09 | 12.6 | 1.38 | 3.3 µM | 3.22 | 13 | 5.6 | 19.1 µM | 2.51 | 7.89 µM | 1.57 | 3.37 µM | 0.848 | 5.12 µM | 4.89 | 18.3 µM | 4.19 | 18.2
8 | CCc1ccc(Oc2nccc(-c3c(-c4ccc(F)cc4)ncn3C3CCNCC3)n2)cc1 | 4.06 | 9.16 µM | 5.18 | 13.3 | 4.24 | 7.93 µM | 5.77 | 14.9 | 4.91 | 10.4 µM | 4.79 | 9.57 µM | 5.46 | 10.8 µM | 1.17 | 9.53 µM | 4.77 | 13.6 µM | 6.76 | 15.4
9 | CN(C)CCCNC(=O)c1cccc2nc3ccccc3nc12 | – | > 73.4 µM | – | > 78.7 | – | > 48.3 µM | – | > 100 | – | > 100 µM | – | 54.2 µM | – | > 53.3 µM | – | > 78.4 µM | – | > 100 µM | – | 39.9
10 | C=C1C(=O)O[C@H]2[C@H]1CC/C(COC(=O)c1cccc3ccccc13)=C\CC[C@@]1(C)O[C@@H]21 | 1.39 | 2.68 µM | 2.12 | 5.4 | 1.64 | 3.16 µM | 1.35 | 4.54 | 1.69 | 3.22 µM | 1.29 | 2.7 µM | 1.42 | 3.21 µM | 1.01 | 2.61 µM | 1.52 | 2.86 µM | 1.6 | 3.38
11 | Oc1[nH]c2ccc(Cl)cc2c1/C=c1/ccc2c(c1)N=C(c1ccc(C(F)(F)F)cc1)N=2 | 1.74 | 3.47 µM | 3 | 10.8 | 2.1 | 4.13 µM | 2.21 | 5.44 | 1.75 | 3.31 µM | 2.51 | 6.65 µM | 1.67 | 3.34 µM | 1.68 | 4.35 µM | 3.24 | 15.4 µM | 2.72 | 7.64
12 | NC(Cn1ccc(=O)c(O)c1)C(=O)O (centres undefined) | – | > 100 µM | – | > 100 | – | > 100 µM | – | > 100 | – | > 100 µM | – | > 100 µM | – | > 100 µM | – | > 100 µM | – | > 100 µM | – | > 100
13 | COc1ccc(/C=c2\sc3nnc(CCC(=O)Nc4cccc(C(F)(F)F)c4)n3c2=O)cc1 | – | > 100 µM | – | > 100 | – | > 100 µM | – | > 95.5 | – | > 100 µM | – | > 100 µM | – | > 100 µM | – | > 100 µM | – | > 100 µM | – | > 100
14 | O=S(=O)(CC(O)C(Cl)(Cl)Cl)NNc1ccccc1 (centres undefined) | – | > 100 µM | – | > 100 | – | > 100 µM | – | > 100 | – | > 100 µM | – | > 100 µM | – | > 100 µM | – | > 100 µM | – | > 100 µM | – | > 100
15 | O=C1/C(=C\c2ccc([N+](=O)[O-])cc2)CS(=O)(=O)C/C1=C/c1ccc([N+](=O)[O-])cc1 | 0.0731 | 0.483 µM and 2 µM | 0.35 | 10.8 | 0.252 | 0.983 µM and 0.645 µM | – | 0.547 | 0.133 | 0.356 µM and 0.359 µM | 0.136 | 0.579 µM and 0.363 µM | 0.131 | 0.331 µM and 2.51 µM | 0.258 | 0.656 µM and 6.43 µM | 0.19 | 0.405 µM and 2.19 µM | 0.359 | 10.5
16 | Cc1ccc(-n2nnc3c(sc4ccccc43)c2=O)cc1 | 3.38 | 19 µM | 5.23 | > 100 | 6.23 | > 100 µM | 24 | > 100 | 3.4 | 12.1 µM | 5.23 | 30.6 µM | > 100 | > 100 µM | 1.54 | 6.82 µM | 4.17 | > 100 µM | 4.62 | 71
17 | COc1ccc(C2=NNC(c3cc(Cc4ccc(O)c(C5CC(c6ccc(OC)cc6)=NN5)c4)ccc3O)C2)cc1 (centres undefined) | 5.84 | > 100 µM | 6.84 | > 100 | 19.4 | > 100 µM | 9.89 | > 100 | 8.39 | 93.4 µM | 22.4 | > 100 µM | 10.4 | 38.3 µM | 8.28 | > 100 µM | 5.56 | > 100 µM | 17.9 | > 100
18 | COc1ccc(/C=C/c2ccnc3ccccc23)cc1 | – | 31.9 µM | – | 30.8 | – | 31.1 µM | – | 45 | – | 30.6 µM | – | 37.6 µM | – | 31.7 µM | – | 16.5 µM | – | 27 µM | – | 30.4
19 | O=[N+]([O-])c1ccc(Oc2cccc(C(F)(F)F)c2)c([N+](=O)[O-])c1 | 3.61 | 14.2 µM | 4.56 | 16.5 | 2.64 | 6.04 µM | 2.6 | 7.62 | 3.24 | 9.81 µM | 3.05 | 11.5 µM | 2.79 | 14 µM | 1.25 | 5.39 µM | 3.39 | 13.8 µM | 3.17 | 12.2
20 | O=C1c2ccccc2-c2c1c1c(O)cccc1n2CCCc1ccccc1 | 26.4 | > 100 µM | 9.61 | > 100 | 17.8 | > 100 µM | 13.7 | 51.9 | 21 | 99.3 µM | 23.1 | > 100 µM | > 100 | > 100 µM | 45.3 | > 100 µM | 14.1 | 66.9 µM | 88.5 | > 100
